Structures can show the parent of a compound that is named as a salt.
Tests used:
[1] = system: LOVO human colon cancer cell line; experiment: Cell proliferation assay (Cell titer glo); type: cell-based; details: LOVO cells, 72 hours
Description: In the present disclosure, cell assays were used to evaluate the biological activity of compounds. LOVO (Nanjing Cobioer), a human colon cancer cell line, was cultured in a Dulbecco's Modified Eagle's medium 96-well plate, supplemented with 10% fetal bovine serum and 1% P/S, and the culture environment was 37° C. and 5% CO2. Compound concentrations were ranged from 4.5 nM to 30 μM. The stock solution of the test compound was dissolved in DMSO and added to the medium at the indicated concentration, and incubated for 72 hours. Negative control cells were treated with vehicle only. In some experiments, known ATR inhibitors were added as positive controls. Cell viability was evaluated using the Cell titer glo kit (CTG, Promega) under the instructions of the product specification. The data were analyzed using Graphpad software, and IC50 values and compound fitting curves were obtained (Table 2).

CYP2C19 = CYP2C19 (Homo sapiens (Human), UniProt P33261); experiment: Cytochrome oxidase P450 inhibition study, CYP2C19; type: in vitro ADME; details: human liver microsomes; read-out: IC50 2C19
Description: (§1) LC-MS/MS methods were used to evaluate the inhibitory effects of compounds on CYP2C19, 2D6 and 3A4 subtypes. In this method, the test compound was mixed with a solution of human liver microsomes containing CYP model substrates, and incubated together under the addition of NADPH, then the inhibitory IC50 of the compound on CYP2C19, 2D6 and 3A4 was calculated by measuring the amount of metabolites of the model substrate in the reaction solution. The specific experimental method is as follows:
(§2) Compounds to be tested were prepared as stock solutions at 10 mM concentration with DMSO and then diluted to 4 mM with acetonitrile solution. At the same time, the corresponding reference inhibitor solutions for CYP subtypes were prepared, for example, the reference inhibitor was Ketoconazole, then these two compounds were prepared separately ([…] of inhibitor DMSO stock solution+[…] of acetonitrile), and the samples prepared under the above conditions were at 400× concentration. Then, the above solution was 3-fold diluted with DMSO/acetonitrile mixture (v/v: 40/60) to prepare the final test solution, and seven concentration points were set for each test compound, and the initial test final concentration was 10 μM. […]
(§3) […] of human liver microsome solution (0.2 mg/mL) was added to each well containing the test compound in the 96-well plate, and then 2 mL of the final test sample of test compounds prepared by serial dilution as described above was added thereto; for each well corresponding to the reference inhibitors, […] of human liver microsome solution (0.2 mg/mL) and 1 mL of the final test sample were added. […] The inhibition rate was determined by comparing the amount of model substrate metabolites at each test concentration without test substance addition, in the GraphPad Prism 5.0 software, the logarithm of the test concentration was used as the abscissa and the inhibition rate was used as the ordinate to perform a linear regression (Sigmoidal (non-linear) dose-response model) analysis to obtain the IC50 value of the test compound.

CYP2D6 = CYP2D6 (Homo sapiens (Human), UniProt P10635); experiment: Cytochrome oxidase P450 inhibition study, CYP2D6; type: in vitro ADME; details: human liver microsomes; read-out: IC50 2D6
Description: as §1, §2, §3

hERG channel = hERG channel (Homo sapiens (Human), UniProt Q12809); experiment: Cardiac safety evaluation, hERG study (QPatch whole-cell recording); type: cell-based; details: CHO cell line expressing hERG channel
Description: In this experiment, a CHO cell line stably transfected with hERG cDNA and expressing p15 hERG channel was used. Cells were incubated at 37° C. in a humidified incubator containing 5% CO2 in medium (Ham's F12, 10% v/v FBS, 100 μg/mL hygromycin B, 100 μg/mL geneticin) (from Invitrogen). Cells were grown under the above conditions and reached approximately 80-90% of the confluency. Cells were treated with Detachin (Genlantis) for 3 to 5 minutes. The medium was titrated 15 to 20 times at 37° C., and then the cells were resuspended in CHO-S-SFM II medium (serum-free medium, Invitrogen) buffered with HEPES (25 mM). Cells used for QPatch studies must meet the following criteria: Most suspension cells should be single and isolated under microscopy; viability should be greater than 95%; cell density in the final suspension should be in the range of 3 to 8×10^6 cells/mL before application to the QPatch stir chamber. Cells meeting the above conditions can be used for recordings within 4 hours of harvest.
Test compounds were made into 10 mM DMSO stock solutions. Six doses (30, 10, 3, 1, 0.3 and 0.1 μM) were selected to obtain the fitted curves and IC50. The final DMSO concentration was 0.1% or less. The IC50 of the positive control cisapride was assessed at doses of 3, 1, 0.3, 0.1, 0.03 and 0.01 μM, respectively. Composition of […] for electrophysiological recordings: CaCl2 2 mM, MgCl2 1 mM, KCl 4 mM, NaCl 145 mM, Glucose 10 mM, HEPES 10 mM, pH 7.4 (NaOH), composition of external solution: CaCl2 […], MgCl2 1.75 mM, KCl 120 mM, HEPES 10 mM, EGTA 5 mM, Na-ATP 4 mM, pH 7.25 (KOH) (all reagents used were from sigma).
Whole-cell recordings were performed using automated QPatch (Sophion Biosciences, Denmark). Cells were recorded for 120 s to assess current stability. The above voltages were then applied to the cells every 15 s throughout the procedure. […]
The data were analyzed with Sophion Assay software (determination software V5.0), Microsoft Excel and Graphpad Prism 5.0 to obtain IC50 of compounds.

Sequence of hERG channel (Q12809 whole entry): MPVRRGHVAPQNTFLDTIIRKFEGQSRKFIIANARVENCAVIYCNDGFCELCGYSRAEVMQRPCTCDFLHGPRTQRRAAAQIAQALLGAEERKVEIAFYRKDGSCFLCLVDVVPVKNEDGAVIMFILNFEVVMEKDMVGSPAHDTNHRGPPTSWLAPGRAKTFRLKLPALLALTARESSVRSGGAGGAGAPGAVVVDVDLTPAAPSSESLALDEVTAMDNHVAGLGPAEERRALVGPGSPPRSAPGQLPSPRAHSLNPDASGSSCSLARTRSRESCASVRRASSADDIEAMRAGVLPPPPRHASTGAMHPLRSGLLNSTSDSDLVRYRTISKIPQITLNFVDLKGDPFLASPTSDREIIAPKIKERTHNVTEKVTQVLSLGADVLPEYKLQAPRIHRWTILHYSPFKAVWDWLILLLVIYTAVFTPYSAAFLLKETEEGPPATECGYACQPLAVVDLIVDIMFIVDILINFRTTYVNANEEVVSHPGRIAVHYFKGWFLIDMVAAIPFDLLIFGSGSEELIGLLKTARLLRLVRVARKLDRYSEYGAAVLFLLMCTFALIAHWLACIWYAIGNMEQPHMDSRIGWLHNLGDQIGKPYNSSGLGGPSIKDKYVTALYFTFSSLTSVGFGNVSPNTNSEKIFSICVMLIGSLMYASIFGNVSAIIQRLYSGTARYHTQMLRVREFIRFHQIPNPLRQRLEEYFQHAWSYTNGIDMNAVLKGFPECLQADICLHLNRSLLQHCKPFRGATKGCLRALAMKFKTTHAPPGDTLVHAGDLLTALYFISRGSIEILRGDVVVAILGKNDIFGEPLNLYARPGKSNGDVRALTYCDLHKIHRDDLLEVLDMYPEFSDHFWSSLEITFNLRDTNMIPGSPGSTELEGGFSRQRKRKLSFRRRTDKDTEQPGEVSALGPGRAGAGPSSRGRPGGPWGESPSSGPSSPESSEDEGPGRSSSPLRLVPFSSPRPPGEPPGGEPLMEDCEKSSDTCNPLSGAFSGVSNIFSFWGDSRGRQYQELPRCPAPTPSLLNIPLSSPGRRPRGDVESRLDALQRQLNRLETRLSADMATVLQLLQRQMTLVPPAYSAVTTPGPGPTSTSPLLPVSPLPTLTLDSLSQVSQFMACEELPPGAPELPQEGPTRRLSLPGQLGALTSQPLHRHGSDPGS
Sequence of CYP2D6 (P10635 whole entry): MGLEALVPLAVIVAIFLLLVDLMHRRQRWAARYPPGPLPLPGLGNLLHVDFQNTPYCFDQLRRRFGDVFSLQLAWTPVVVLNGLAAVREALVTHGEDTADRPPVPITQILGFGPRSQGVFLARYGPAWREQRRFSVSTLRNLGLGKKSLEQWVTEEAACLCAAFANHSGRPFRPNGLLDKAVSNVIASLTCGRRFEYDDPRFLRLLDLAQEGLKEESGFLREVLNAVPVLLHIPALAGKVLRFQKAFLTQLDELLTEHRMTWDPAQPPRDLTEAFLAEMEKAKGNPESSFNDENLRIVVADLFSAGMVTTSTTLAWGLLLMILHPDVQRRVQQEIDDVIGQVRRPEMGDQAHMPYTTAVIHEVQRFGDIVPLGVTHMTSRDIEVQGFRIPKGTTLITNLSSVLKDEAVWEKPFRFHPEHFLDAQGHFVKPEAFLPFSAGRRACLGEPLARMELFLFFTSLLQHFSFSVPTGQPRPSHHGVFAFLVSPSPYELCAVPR
Sequence of CYP2C19 (P33261 whole entry): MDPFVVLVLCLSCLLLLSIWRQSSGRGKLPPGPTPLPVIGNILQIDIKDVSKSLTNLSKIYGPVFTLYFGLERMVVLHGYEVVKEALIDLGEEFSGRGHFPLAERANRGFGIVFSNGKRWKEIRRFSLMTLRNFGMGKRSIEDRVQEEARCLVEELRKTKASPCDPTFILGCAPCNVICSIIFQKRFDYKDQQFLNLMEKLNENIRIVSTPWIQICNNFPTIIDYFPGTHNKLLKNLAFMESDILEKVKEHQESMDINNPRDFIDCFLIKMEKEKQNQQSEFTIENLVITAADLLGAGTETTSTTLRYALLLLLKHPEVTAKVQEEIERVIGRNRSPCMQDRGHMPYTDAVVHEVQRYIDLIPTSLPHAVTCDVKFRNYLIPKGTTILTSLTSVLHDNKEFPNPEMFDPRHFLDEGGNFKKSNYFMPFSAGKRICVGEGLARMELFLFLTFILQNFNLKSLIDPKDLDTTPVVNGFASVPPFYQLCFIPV

| IC50 [1] | IC50 (CYP2C19) | IC50 (CYP2D6) | Structure (SMILES) | IC50 (hERG channel) |
| --- | --- | --- | --- | --- |
| 0.0373 µM | > 10 µM | > 10 µM | C[C@@H]1COCCN1c1nc2c(cnn2-c2cc[nH]n2)c2c1CCN2S(C)(=O)=O [Compound 2, (R)-3-methyl-4-(1-(methylsulfonyl)-6-(1H-pyrazol-3-yl)-1,2,3,6-tetrahydropyrazolo[3,4-b]pyrrolo[2,3-d]pyridin-4-yl)morpholine trifluoroacetate] | > 30 µM |
| 0.0296 µM | > 10 µM | > 10 µM | C[C@@H]1COCCN1c1nc2c(cnn2-c2cc[nH]n2)c2c1ccn2S(C)(=O)=O [Compound 1, (R)-3-methyl-4-(1-(methylsulfonyl)-6-(1H-pyrazol-3-yl)-1,6-dihydropyrazolo[3,4-b]pyrrolo[2,3-d]pyridin-4-yl)morpholine trifluoroacetate] | > 30 µM |

Source: US20240025899A1, “TRIHETEROCYCLIC DERIVATIVE, AND PHARMACEUTICAL COMPOSITION AND APPLICATION THEREOF” (SHANGHAI DE NOVO PHARMATECH CO., LTD., priority 2020, published 2024)
